Data on 4 molecules can be found in patent publication US20070254947A1, “Composition for external use” (ROHTO PHARMACEUTICAL CO., LTD., priority 2006, published 2007).

For data set [1] the following is noted: approximate ratio, reportedly; cited from earlier work.
The conditions of data set [2]: J. Act. Oxyg. Free Rad. 3:531-54; cited from earlier work.
For data set [3], the system named is Normal human dermal fibroblasts (NHDF-AD). The method, then:
Normal human dermal fibroblasts (NHDF-AD: product of Kurabo Industries, Ltd.) were inoculated onto a 24-well plate (1.0×10^4 cells/well), and incubated for four days in 1 ml of DMEM containing 10% FBS(vol/vol). Subsequently, the supernatant of the wells was replaced with 1 ml of fresh DMEM containing 10% FBS(vol/vol), and 5 μl of ethanol solution containing a predetermined concentration of tocopherol or 5 μl of ethanol was added to the concentrations shown in Tables 1 and 2, and […] of 0.045% hydroquinone solution was added, followed by incubation for 24 hours. Then, the supernatant of the wells were removed by replacement with 1 ml of medium, and the number of cells that survived was determined by WST-1 assay.

Regarding `Cc1c(C)c2c(c(C)c1O)CC[C@@](C)(CCC[C@H](C)CCC[C@H](C)CCCC(C)C)O2` [α-tocopherol], the “ratio of biological activities of α-, β-, γ-, and δ-tocopherols” value in data set [1] was “approximately 100”. The “antioxidant activity against oils and fats (rank)” value in data set [2] is “lowest”. Besides, in data set [3], the “survival rate, times higher than that of Control 1” value is on record as “more than 1.3 times”.
As for `Cc1cc(O)c(C)c2c1O[C@](C)(CCC[C@H](C)CCC[C@H](C)CCCC(C)C)CC2` [β-tocopherol], in data set [1], the “ratio of biological activities of α-, β-, γ-, and δ-tocopherols” value is on record as around 24.
Regarding `Cc1c(O)cc2c(c1C)O[C@](C)(CCC[C@H](C)CCC[C@H](C)CCCC(C)C)CC2` [γ-tocopherol], in data set [1], the “ratio of biological activities of α-, β-, γ-, and δ-tocopherols” value was around 4. Also, in data set [3], the “hydroquinone-cytotoxicity-reducing activity (rank among tocopherols)” value is “second highest” and the “survival rate, times higher than that of Control 1” value is recorded as “more than 2.3 times”.
For the molecule `Cc1cc(O)cc2c1O[C@](C)(CCC[C@H](C)CCC[C@H](C)CCCC(C)C)CC2` [δ-tocopherol], in data set [1], the “ratio of biological activities of α-, β-, γ-, and δ-tocopherols” value is recorded as around 0.1. Besides, in data set [2], the “antioxidant activity against oils and fats (rank)” value is “highest”. In addition, in data set [3], the “hydroquinone-cytotoxicity-reducing activity (rank among tocopherols)” value was “highest” and the “survival rate compared with Control 1” value is “remarkably higher survival rate”.
